Values joined by “and” are separate entries in the source; they are usually repeats but may differ in a detail not shown here. Identical values can stand only once. Toxic doses and inconclusive results are not listed.

The source of these data is PubChem BioAssay AID328 (DTP/NCI, 2004).

For this experiment, the system named is BDF1 mice, P388 leukemia ip, median survival T/C. The experiment can be described thus: NCI In Vivo Anticancer Drug Screen. Data for tumor model P388 Leukemia (intraperitoneal) in B6D2F1 (BDF1) mice. The settings on record: endpoint: median survival time, higher = longer survival. Put shortly:
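Transplantable tumour in mice; compound vs vehicle dosing; survival scored; ratio of treated to control reported.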

[1] abbreviates: dose: 100.0 mg/kg/injection, schedule: Q01DX001 (ip), vehicle: saline with Tween-80.
[2] abbreviates: dose: 200.0 mg/kg/injection, schedule: Q01DX001 (ip), vehicle: saline with Tween-80.
The mark [3] stands for this setting: dose: 400.0 mg/kg/injection, schedule: Q01DX001 (ip), vehicle: saline with Tween-80.
[4] abbreviates: dose: 100.0 mg/kg/injection, schedule: Q04DX003 (ip), vehicle: saline with Tween-80.
Setting [5] is: dose: 200.0 mg/kg/injection, schedule: Q04DX003 (ip), vehicle: saline with Tween-80.
The mark [6] stands for this setting: dose: 25.0 mg/kg/injection, schedule: Q01DX009 (ip), vehicle: saline with Tween-80.
Where [7] appears, read: dose: 50.0 mg/kg/injection, schedule: Q01DX009 (ip), vehicle: saline with Tween-80.
[8] abbreviates: dose: 5.0 mg/kg/injection, schedule: Q01DX009 (ip), vehicle: saline.
Where [9] appears, read: dose: 100.0 mg/kg/injection, schedule: Q01DX009 (ip), vehicle: saline with Tween-80.
Setting [10] is: dose: 200.0 mg/kg/injection, schedule: Q01DX009 (ip), vehicle: saline with Tween-80.

Take `CC[N+](C)(CC)CCC[n+]1c(-c2ccccc2)c2cc(N)ccc2c2ccc(N)cc21`: the T/C reads like this: (dose: 1.5 mg/kg/injection, schedule: Q01DX009 (ip), vehicle: saline) 107 % of control; (dose: 3.0 mg/kg/injection, schedule: Q01DX009 (ip), vehicle: saline) 100 % of control; (dose: 3.12 mg/kg/injection, schedule: Q04DX003 (ip), vehicle: saline) 100 % of control; (dose: 6.25 mg/kg/injection, schedule: Q04DX003 (ip), vehicle: saline) 100 % of control.

As for `CS(=O)(=O)Nc1ccc(NS(C)(=O)=O)cc1`, the T/C was 112 % of control under setting [1], 100 % of control under setting [2] and 100 % of control under setting [3].

For the compound `Cc1csc(/N=C/c2ccc([N+](=O)[O-])o2)n1`, the T/C was 109 % of control (dose: 50.0 mg/kg/injection, schedule: Q04DX003 (ip), vehicle: saline with Tween-80); 118 % of control under setting [4]; 113 % of control under setting [5].

For `C[Si](C)(OC(=O)N(CCCl)CCCl)O[Si](C)(C)OC(=O)N(CCCl)CCCl`, the T/C was 110 % of control (dose: 6.25 mg/kg/injection, schedule: Q01DX009 (ip), vehicle: saline with Tween-80); 185 % of control under setting [6]; 208 % of control under setting [7].

For the compound `COc1cccc2c1C(=O)c1c(O)c3c(c(O)c1C2=O)CC(O)(C(C)=O)CC3OC1CC(N)C(O)C(C)O1` (stereo not given), the T/C by setting is: (dose: 0.03 mg/kg/injection, schedule: Q01DX010 (ip), vehicle: saline) 118 % of control; (dose: 0.06 mg/kg/injection, schedule: Q01DX010 (ip), vehicle: saline) 118 % of control; (dose: 0.12 mg/kg/injection, schedule: Q01DX010 (ip), vehicle: saline) 118 % of control; (dose: 0.25 mg/kg/injection, schedule: Q01DX009 (ip), vehicle: water) 160 % of control; (dose: 0.25 mg/kg/injection, schedule: Q01DX010 (ip), vehicle: saline) 165 % of control and 175 % of control; (dose: 0.5 mg/kg/injection, schedule: Q01DX009 (ip), vehicle: water) 173 % of control. Besides, the T/C is 180 % of control and 195 % of control (dose: 0.5 mg/kg/injection, schedule: Q01DX010 (ip), vehicle: saline); 182 % of control (dose: 1.0 mg/kg/injection, schedule: Q01DX009 (ip), vehicle: water); 230 % of control and 200 % of control (dose: 1.0 mg/kg/injection, schedule: Q01DX010 (ip), vehicle: saline); 210 % of control (dose: 2.0 mg/kg/injection, schedule: Q01DX009 (ip), vehicle: water); 155 % of control and 190 % of control and 220 % of control (dose: 2.0 mg/kg/injection, schedule: Q01DX010 (ip), vehicle: saline); 157 % of control (dose: 4.0 mg/kg/injection, schedule: Q01DX009 (ip), vehicle: water). Besides, the T/C reads like this: (dose: 4.0 mg/kg/injection, schedule: Q01DX010 (ip), vehicle: saline) 180 % of control; (dose: 7.5 mg/kg/injection, schedule: Q04DX003 (ip), vehicle: water) 104 % of control; (dose: 8.0 mg/kg/injection, schedule: Q01DX001 (ip), vehicle: saline) 150 % of control; (dose: 8.0 mg/kg/injection, schedule: Q01DX010 (ip), vehicle: saline) 90 % of control and 95 % of control; (dose: 15.0 mg/kg/injection, schedule: Q04DX003 (ip), vehicle: water) 119 % of control; (dose: 16.0 mg/kg/injection, schedule: Q01DX001 (ip), vehicle: saline) 90 % of control. Further, the T/C is, setting by setting: (dose: 60.0 mg/kg/injection, schedule: Q04DX003 (ip), vehicle: water) 167 % of control; (dose: 240.0 mg/kg/injection, schedule: Q04DX003 (ip), vehicle: water) 93 % of control; (dose: 125.0 micrograms/kg/injection, schedule: Q01DX010 (ip), vehicle: saline) 154 % of control; (dose: 250.0 micrograms/kg/injection, schedule: Q01DX010 (ip), vehicle: saline) 159 % of control.

Regarding `N#CC(Br)C(N)=O` (stereo not given), the T/C was 98 % of control (dose: 2.5 mg/kg/injection, schedule: Q01DX009 (ip), vehicle: saline) and 120 % of control under setting [8].

Turning to `CCCCCCCCCCCCCCCCCOc1ccc(I)cc1`, the T/C was 95 % of control (dose: 50.0 mg/kg/injection, schedule: Q01DX001 (ip), vehicle: saline with Tween-80); 100 % of control under setting [1]; 90 % of control under setting [2].

On to `C[C@]1(O)CC[C@H]2[C@@H]3CCC4=CC(=O)CC[C@]4(C)[C@@]3(Cl)[C@@H](O)C[C@@]21C`, for which the T/C is, setting by setting: (dose: 100.0 mg/kg/injection, schedule: Q01DX009 (ip), vehicle: saline sonified) 100 % of control; under setting [4], 95 % of control; (dose: 200.0 mg/kg/injection, schedule: Q01DX009 (ip), vehicle: saline sonified) 100 % of control; under setting [5], 100 % of control; (dose: 400.0 mg/kg/injection, schedule: Q01DX009 (ip), vehicle: saline sonified) 100 % of control; (dose: 400.0 mg/kg/injection, schedule: Q04DX003 (ip), vehicle: saline with Tween-80) 100 % of control.

As to `C/C(CC1(O)C(=O)Nc2ccccc21)=N\O` (stereo not given), the T/C by setting is: under setting [9], 100 % of control; under setting [10], 95 % of control; (dose: 400.0 mg/kg/injection, schedule: Q01DX009 (ip), vehicle: saline with Tween-80) 104 % of control.

With `CCCC(=O)Nc1ccc(N)cc1OC`, the T/C by setting is: under setting [8], 100 % of control; (dose: 5.0 mg/kg/injection, schedule: Q04DX003 (ip), vehicle: saline) 91 % of control; (dose: 10.0 mg/kg/injection, schedule: Q01DX009 (ip), vehicle: saline) 100 % of control; (dose: 10.0 mg/kg/injection, schedule: Q04DX003 (ip), vehicle: saline) 100 % of control; (dose: 20.0 mg/kg/injection, schedule: Q01DX009 (ip), vehicle: saline) 100 % of control; (dose: 20.0 mg/kg/injection, schedule: Q04DX003 (ip), vehicle: saline) 91 % of control.

For the compound `[NH-]C(CO)C(=O)O.[NH-]C(CO)C(=O)O.[Pd+2]` (stereo not given), the T/C (dose: 12.5 mg/kg/injection, schedule: Q01DX009 (ip), vehicle: water) is 106 % of control.

In the case of `CC(C)(O)c1ccccc1[S+]1OC(C)(C)c2ccccc21` (stereo not given), the T/C reads like this: under setting [1], 98 % of control; (dose: 100.0 mg/kg/injection, schedule: Q01DX001 (ip), vehicle: saline) 100 % of control; under setting [2], 103 % of control; (dose: 200.0 mg/kg/injection, schedule: Q01DX001 (ip), vehicle: saline) 102 % of control; under setting [3], 118 % of control; (dose: 400.0 mg/kg/injection, schedule: Q01DX001 (ip), vehicle: saline) 117 % of control.

Take `Cc1ccc(S(=O)CC(Cl)c2ccccc2)cc1` (stereo not given): the T/C is 105 % of control (dose: 50.0 mg/kg/injection, schedule: Q01DX009 (ip), vehicle: other); 106 % of control (dose: 100.0 mg/kg/injection, schedule: Q01DX009 (ip), vehicle: other); 100 % of control (dose: 200.0 mg/kg/injection, schedule: Q01DX009 (ip), vehicle: other).

Turning to `O=[N+]([O-])c1ccc(S(=O)(=O)N/N=C\c2ccc(Cl)c(Cl)c2)cc1`, the T/C runs as follows: (dose: 12.5 mg/kg/injection, schedule: Q01DX009 (ip), vehicle: saline with Tween-80) 95 % of control; under setting [6], 92 % of control; under setting [7], 100 % of control.

With `CC(=O)[O][Pb]([O]C(C)=O)([c]1ccccc1)[c]1ccccc1`, the T/C is 177 % of control (dose: 44.0 mg/kg/injection, schedule: Q01DX009 (ip), vehicle: saline with Tween-80); 184 % of control (dose: 66.0 mg/kg/injection, schedule: Q01DX009 (ip), vehicle: saline with Tween-80); 201 % of control under setting [9]; 93 % of control (dose: 150.0 mg/kg/injection, schedule: Q01DX009 (ip), vehicle: saline with Tween-80).

Turning to `O=C1CC2C3Nc4ccccc4C3CCN2C2=C1CC(OC(=O)c1ccccc1)CC2` (stereo not given), the T/C was 104 % of control under setting [7], 104 % of control under setting [9] and 86 % of control under setting [10].
